Measured values reported in publication PMC12881670, “Investigation into ligand selectivity and bias at the formyl peptide receptor family” (The Journal of Pharmacology and Experimental Therapeutics, 2025).
pEC50: −log10 of the molar value. Entries after “also recorded” stand apart in the source; their conditions may differ. Like-named read-outs stand apart in the source and are kept apart here. Where a SMILES comes first, the peptide text is derived from it. Where no end group is shown, it is not given here. The star is where a group is joined. For = O=C*

What was measured:
Format in all cases: cell-based
Hs_FPR2 [1] = biological target: T1, Hs_FPR2 (Homo sapiens, UniProt P25090); experiment: BRET receptor-RLuc8 interaction with Venus-mGsi; details: for Log EC50 (M): log of EC50, HEK293 transient, 10 min; for Log EC50 (M) / Emax (%): mGsi BRET, mean, ND = no interaction detected; for Emax (%): % of response to 1 μM WKYMVm
T1 construct: expressed in transfected cells
T1 sequence (P25090 1-351): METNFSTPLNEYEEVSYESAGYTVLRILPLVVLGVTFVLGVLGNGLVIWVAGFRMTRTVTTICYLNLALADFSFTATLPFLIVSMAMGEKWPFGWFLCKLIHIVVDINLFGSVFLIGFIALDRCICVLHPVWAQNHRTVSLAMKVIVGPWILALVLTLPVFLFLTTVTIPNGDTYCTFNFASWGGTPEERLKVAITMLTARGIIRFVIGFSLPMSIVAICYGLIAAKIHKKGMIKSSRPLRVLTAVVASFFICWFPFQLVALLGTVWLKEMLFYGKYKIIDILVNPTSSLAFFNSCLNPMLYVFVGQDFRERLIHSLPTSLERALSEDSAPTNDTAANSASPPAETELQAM
Summary of the method: (§1)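 Agonist-induced BRET between C-terminal RLuc8-fused receptor and Venus-mGsi or YFP-Arrestin 3 was recorded after 10 min compound treatment at 37 °C, using coelenterazine h at 5 μM final. Acceptor/donor ratios minus untreated background gave N-BRET, fitted with a 3-parameter log(agonist)–response model.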

Hs_FPR2 [2] = biological target: T1, Hs_FPR2; experiment: BRET receptor-RLuc8 interaction with Arrestin 3-YFP; details: for Emax (%) / Log EC50 (M): Arrestin 3 BRET, mean, ND = no interaction detected; for Emax (%): % of response to 1 μM WKYMVm; for pEC50: Hs_FPR2-Rluc8 donor, Arrestin 3-YFP acceptor, read-out: EC50 arrestin recruitment, BRET; for Log EC50 (M): log of EC50, HEK293 transient, 10 min
Summary of the method: as §1

Hs_FPR1 = biological target: T2, Hs_FPR1 (Homo sapiens, UniProt P21462); experiment: Internalization of FLAG-tagged receptors by flow cytometry; parameters: Emax: dose or concentration left out as unconfirmed; details: for agonist-induced internalization (words): Hs_FPR1, 30 min, relative to 1 μM WKYMVm; for Emax: read-out: Emax (%), internalization, Mean
T2 construct: expressed in transfected cells
T2 sequence (P21462 1-350): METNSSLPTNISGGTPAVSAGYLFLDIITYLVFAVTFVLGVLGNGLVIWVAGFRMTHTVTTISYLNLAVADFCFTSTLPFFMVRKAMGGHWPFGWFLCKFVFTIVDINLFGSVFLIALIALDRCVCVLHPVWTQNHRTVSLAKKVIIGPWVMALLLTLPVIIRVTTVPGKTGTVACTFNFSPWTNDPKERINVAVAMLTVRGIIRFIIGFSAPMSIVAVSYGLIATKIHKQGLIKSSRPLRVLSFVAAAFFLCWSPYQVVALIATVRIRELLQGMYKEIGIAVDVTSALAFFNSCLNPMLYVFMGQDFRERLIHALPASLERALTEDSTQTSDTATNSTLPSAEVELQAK
Experimental: (§2) Internalization of FPRs was measured by flow cytometry.[30] Briefly, cells were incubated with Alexa Fluor 657 conjugated M1 antiflag antibody (Sigma-Aldrich Cat# F3040, RRID:AB_439712) for 30 minutes at 37 °C to label surface receptors. Cells were then incubated with the indicated concentration of ligand before washing in PBS/0.04% EDTA to remove any remaining surface antibody. Remaining fluorescence was then measured using flow cytometry on either a BD FACScalibur or Attune, recording 5000 gated events. […] As a control, some samples were left untreated, and “strip only” was measured as a readout of constitutive endocytosis, and this value was subtracted from the data.
(§3) All data were analyzed using GraphPad Prism using the nonlinear regression log(agonist) versus response (3 parameters) function for all assays, except binding, which was analyzed using the One site-FitlogIC50 function. Bias calculations were carried out following IUPHAR guidelines as described,[27]^,[37] and data were presented as the Δ Activity ratio (Log[EmaxB/EC50B])-(Log[EmaxA/EC50A]).

Hs_FPR2 [3] = biological target: T1, Hs_FPR2; experiment: as above; parameters: Emax: dose or concentration left out as unconfirmed; details: for Emax (%), internalization, Mean: % of internalization to WKYMVm (1 mM in legend, 1 μM in text), Hs_FPR2, 30 minutes; for Emax (%), internalization, Mean / Log EC50 (M), internalization, Mean: ND denotes no internalization measured; for agonist-induced internalization (words): Hs_FPR2, 30 min, relative to 1 μM WKYMVm; for Log EC50 (M), internalization, Mean: HEK293 stably expressing FLAG-Hs_FPR2, ligand 30 minutes
Experimental: as §2, §3

Mm_Fpr1 = biological target: T3, Mm_Fpr1 (Mus musculus, UniProt P33766); experiment: as above; parameters: Emax: dose or concentration left out as unconfirmed; details: for agonist-induced internalization (words): Mm_Fpr1, 30 min, relative to 1 μM WKYMVm
T3 construct: expressed in transfected cells
T3 sequence (P33766 1-364): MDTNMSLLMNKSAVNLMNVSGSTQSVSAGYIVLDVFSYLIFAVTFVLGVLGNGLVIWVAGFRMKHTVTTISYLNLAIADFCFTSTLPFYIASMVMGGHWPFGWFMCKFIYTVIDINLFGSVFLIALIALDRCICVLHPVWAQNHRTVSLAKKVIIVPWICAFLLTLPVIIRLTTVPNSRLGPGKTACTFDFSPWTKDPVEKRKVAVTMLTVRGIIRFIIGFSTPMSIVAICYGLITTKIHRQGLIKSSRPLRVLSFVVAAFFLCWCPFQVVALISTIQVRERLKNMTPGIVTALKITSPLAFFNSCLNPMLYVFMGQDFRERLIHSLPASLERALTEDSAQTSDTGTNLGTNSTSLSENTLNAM
Summary of the method: (§4)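 Surface FLAG-receptors labelled with Alexa Fluor-conjugated M1 anti-FLAG for 30 min at 37 °C, then exposed to ligand; surface antibody stripped with PBS/0.04% EDTA and internalised fluorescence read by flow cytometry (5000 events), constitutive endocytosis subtracted. Curves fitted by log(agonist) vs response, 3 parameters.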

Mm_Fpr2 = biological target: T4, Mm_Fpr2 (Mus musculus, UniProt O88536); experiment: as above; parameters: Emax: dose or concentration left out as unconfirmed; details: for Emax (%), internalization, Mean: % of internalization to WKYMVm (1 mM in legend, 1 μM in text), Mm_Fpr2, 30 minutes; for Log EC50 (M), internalization, Mean: HEK293 stably expressing FLAG-Mm_Fpr2, ligand 30 minutes; for agonist-induced internalization (words): Mm_Fpr2, 30 min, relative to 1 μM WKYMVm
T4 construct: expressed in transfected cells
T4 sequence (O88536 1-351): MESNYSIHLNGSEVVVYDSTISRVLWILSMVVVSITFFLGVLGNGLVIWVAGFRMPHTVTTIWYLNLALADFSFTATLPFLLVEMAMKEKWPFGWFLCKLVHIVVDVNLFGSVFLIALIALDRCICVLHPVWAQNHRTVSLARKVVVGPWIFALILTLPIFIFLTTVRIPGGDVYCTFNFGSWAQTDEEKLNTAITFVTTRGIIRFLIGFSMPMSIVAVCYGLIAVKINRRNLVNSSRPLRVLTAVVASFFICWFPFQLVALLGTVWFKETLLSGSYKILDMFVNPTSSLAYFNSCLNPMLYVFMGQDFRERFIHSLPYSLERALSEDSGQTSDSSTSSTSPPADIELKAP
Summary of the method: as §4

[4] = read-out: Log EC50 (M), internalization, Mean (converted)

Molecule | Log EC50 (M) (Hs_FPR2 [1]) | Emax (%) (Hs_FPR2 [1]) | Emax (%) (Hs_FPR2 [2]) | pEC50 (Hs_FPR2 [2]) | Log EC50 (M) (Hs_FPR2 [2]) | agonist-induced internalization (words) (Hs_FPR1) | Emax (%), internalization, Mean (Hs_FPR2 [3]) | agonist-induced internalization (words) (Hs_FPR2 [3]) | Log EC50 (M), internalization, Mean (Hs_FPR2 [3]) | agonist-induced internalization (words) (Mm_Fpr1) | Emax (%), internalization, Mean (Mm_Fpr2) | Log EC50 (M), internalization, Mean (Mm_Fpr2) | agonist-induced internalization (words) (Mm_Fpr2) | pEC50 (Hs_FPR2 [1]) | Emax (Hs_FPR2 [1]) | Emax (Hs_FPR2 [2]) | Emax (Hs_FPR2 [3]) | Emax (Mm_Fpr2) | Emax (Hs_FPR1) | Emax (Mm_Fpr1) | also measured
Cc1cccc(-c2oc(C)nc2C(=O)Nc2cnn(Cc3nc(C(C)(F)F)co3)n2)c1 [ACT-389949] | −7.80 M | 69.25% | 73.56% | 7.74 | −7.74 M | only at 10 μM | 95.31% | full agonist | −7.975 M | only at 10 μM | 118.5% | −6.539 M | full agonist |  |  |  |  |  |  |  | fold less potency at Mm_Fpr2, internalization (Mm_Fpr2; equipotent to WKYMVm at Hs_FPR2): 28 fold
COc1cc(F)c([C@@H]2CNC(=O)[C@H]2NC(=O)Nc2ccccc2)c(F)c1 [BMS-986235] |  |  |  | 7.40 |  | failed to show appreciable internalization; also recorded: unable to induce any measurable internalization |  | robust internalization |  | failed to show appreciable internalization; also recorded: unable to induce any measurable internalization |  |  | robust internalization | 7.12 | 64.4% | 85.1% | 112% | 88% |  |  | EC50 (Hs_FPR2 [3]; [4]): 9.1e-07 M; times more potent at Mm_Fpr2 than Hs_FPR2, internalization (Mm_Fpr2): 9 times; EC50 (Mm_Fpr2; [4]): 1.03e-07 M
CCCCOc1ccc(C(=O)NN2C(=O)c3ccccc3NC2c2ccc(OC)cc2)cc1 (stereo not shown) [QuinC1] | −6.06 M | 34.75% | 40.71% |  | −5.82 M | partial agonists | 81.29% | partial agonists | −5.809 M | partial agonists | 41.84% | −7.106 M | partial agonists |  |  |  |  |  |  |  | Emax (%), internalization, Mean (Mm_Fpr1; % of internalization to WKYMVm (1 mM in legend, 1 μM in text), Mm_Fpr1, 30 minutes, ND denotes no internalization measured): 66.27%; Log EC50 (M), internalization, Mean (Mm_Fpr1; Log EC50, HEK293 stably expressing FLAG-Mm_Fpr1, ligand 30 minutes, ND denotes no internalization measured): −6.120 M
CSCC[C@H](NC(=O)[C@H](Cc1ccc(O)cc1)NC(=O)[C@H](CCCCN)NC(=O)[C@@H](N)Cc1c[nH]c2ccccc12)C(=O)N[C@H](C(=O)N[C@H](CCSC)C(N)=O)C(C)C [WKYMVm] |  |  |  |  |  |  |  |  |  |  |  |  |  |  | 100% | 102% | 97.5% | 102% | 106% | 108% | 
CSCC[C@H](NC=O)C(=O)N[C@@H](CC(C)C)C(=O)N[C@@H](Cc1ccccc1)C(=O)N[C@@H](CCCCN)C(=O)O [fMLFK, fMet-Leu-Phe-Lys] (For-MLFK-OH) |  |  |  |  |  |  |  |  |  |  |  |  |  | 4.57 | 80.7% | 92.7% | 99.9% | 81.6% | 79.3% | 179% | EC50 (Hs_FPR2 [2]; read-out: Log EC50 (converted)): 36300 nM; pEC50 (Hs_FPR1): 7.79; pEC50 (Hs_FPR2 [3]): 4.48; pEC50 (Mm_Fpr1): 5.21; pEC50 (Mm_Fpr2): 4.94
LESIFRSLLFRVM [MMK1] | −7.17 M |  |  |  | −7.03 M | failed to show appreciable internalization |  | partial agonism | −7.216 M | failed to show appreciable internalization |  |  | unable to induce internalization |  | 38.7% | 59.1% | 62.9% | 8.68% |  | 11.6% | agonist-induced internalization (words) (Hs_FPR1; listed as MMK-1): unable to induce internalization; agonist-induced internalization (words) (Mm_Fpr1; listed as MMK-1): unable to induce internalization
